# Measured values: patent US8548745B2, “Visual-servoing optical microscopy” (The Regents of the University of California, priority 2000, dated 2013)
# Experiments:
# [1] = test system: MCF-7 ADR (MDR) cells; test: VSOM MDR assay (MDR Assay Beta-Test kit), calcein accumulation, run 2; settings: for calcein accumulation in selected single cells on exposure to modulator: two of four selected single cell response curves, run 2, CAM+V (syringe #5) or CAM+MK
# Experimental: Both runs used the pump schedule. […] The red line in each case represents the average of all the cell responses in the entire field of view.
# The MDR Assay β-Test kit was also tested in a VSOM experiment, as described herein. […] Pumps are turned on and off at specified flow rates according to a pre-programmed recipe, or based on real-time analysis of individual cell responses. The CAM, V, and MK concentrations used are noted in the figure. The three exposures to CAM were 900 seconds (20 min) each, and thus the total exposure to CAM was 60 min. The black windows at the bottom of the Figure show the mean response of all cells in the field of view.
# The plot and images were continuously refreshed and updated during the experiment. […] However, the mean cellular fluorescence of each cell was monitored during VSOM experiments, and making deviations from the mean easily detectable. […] Such cells are unable to retain calcein, and it leaks out, causing the fluorescence signal to drop.
# [2] = test system: MCF-7 WTC (DS) cells; test: VSOM MDR assay (MDR Assay Beta-Test kit), calcein accumulation, run 1; assay type: cell-based, human; settings: run 1, N=336, three CAM exposures
# From the text: Both runs used the pump schedule.
# [3] = test system: DoHH2 lymphoma; settings: full phosphorothioate 18-mer; severe immunodeficient mice (Raynaud et al.); cited from earlier work
# [4] = test system: mRNA translation; settings: cell-free system (Mologni et al.); only when both PNA-ODNs are simultaneously present; cited from earlier work
# [5] = test system: MCF-7 WTC cells; test: ADR visual servoing experiment, CAM perfusion until average MI threshold; assay type: cell-based, human; settings: 1 μM CAM in DBPSGP perfused at 0.5 mL/min
# Experimental: MCF-7 WTC cells were grown in 35 mm cell culture dishes, and were pre-stained with H42. After an approximately 1 hr pre-incubation with H42, cells were rinsed with DPBSGP and were placed in the warm microscope chamber. The ADR program successfully operated in the following fashion. Three digital images (360 nm excitation, 490 nm excitation, and transmitted light, brightfield) were acquired at regular specified intervals through this experiment and all the H42 stained nuclei were detected and segmented before the next image interval. The nuclear contours for each nucleus that were delineated in the blue channel were used to calculate a mean cellular fluorescence intensity value from the green channel (MI). An initial perfusion of DBPSGP solution only (syringe #1) was performed at 1.0 mL/min for 8.3 minutes, (as specified by the user), and then syringe #1 was stopped. Next, a perfusion of DBPSGP solution containing 1 μM CAM (syringe #2) was begun at 0.5 mL/min. When the average MI of all the cells reached a specified threshold, syringe #2 was stopped via successful visual servoing. It took 13.9 minutes for the cells to accumulate sufficient CAM, and for the system to detect sufficient intracellular CAM (in the nuclear region), before the system successfully stopped syringe #2, and restarted syringe #1. After 11.4 min (as specified) the system stopped syringe #1 again. […]
compound,measurement,setting,value
CN(C)C(=O)CCSC(SCCC(=O)O)c1cccc(/C=C/c2ccc3ccc(Cl)cc3n2)c1 (centres unmarked) [MK-571],calcein accumulation in selected single cells on exposure to modulator,[1],not inhibited
O=C(O)CN(CC(=O)O)Cc1cc2c(cc1O)Oc1cc(O)c(CN(CC(=O)O)CC(=O)O)cc1C21OC(=O)c2ccccc21 [calcein],"calcein accumulation (mean cellular fluorescence, mean of all cells in field)",[2],240±82
same,"calcein accumulation (mean cellular fluorescence, mean of all cells in field)","[1]; MDR cells, run 2, N=161, three CAM exposures",103±80
COc1ccc(CCN(C)CCCC(C#N)(c2ccc(OC)c(OC)c2)C(C)C)cc1OC (centres unmarked) [verapamil],calcein accumulation in selected single cells on exposure to modulator,[1],do not accumulate calcein until verapamil (V) exposure
"SEQ ID NO:1: 18-mer TCTC CCAG CGTG CGCC AT, anti-sense to the first six codons of the open reading frame of bcl-2 (antisense TCTCCCAGCGTGCGCCAT; chemistry not given here; listed as Homo sapiens)",efficacy against DoHH2 lymphoma,[3],has shown efficacy
SEQ ID NO:2: 15-mer peptide nucleic acid oligodeoxyribonucleotide CCCC AGCC CCTA CCC (CCCCAGCCCCTACCC; all peptide nucleic acid (PNA); further chemistry not fully specified; listed as Homo sapiens),block of mRNA translation,[4],complete block
SEQ ID NO:3: 15-mer peptide nucleic acid oligodeoxyribonucleotide AGCG TGCG CCAT CCC (AGCGTGCGCCATCCC; all peptide nucleic acid (PNA); further chemistry not fully specified; listed as Homo sapiens),block of mRNA translation,[4],complete block
calcein-AM [CAM],time for cells to accumulate sufficient CAM to reach the specified average MI threshold,[5],13.9 min
